From ChEMBL document CHEMBL4330129 (Bioorg Med Chem, 2019)
Values after ≈ are worked out from the molar mass of the structure shown.

Columns and labels:
[1] = Activation of Keap1/Cul3/Nrf2 in human BEAS2B cells assessed as increase in NQO1 levels measured after 48 hrs; format: cell-based; details: BEAS-2B
[2] = Binding affinity to FLAG/His-tagged Keap1 (unknown origin)/biotinylated full-length FLAG/His/Tev/Avi-tagged Cul3 (unknown origin) expressed in baculovirus infected Sf9 insect cells measured after 1 hr by TR-FRET assay; set-up: species or system Homo sapiens
Keap1/Nrf2 = Keap1/Nrf2 (Homo sapiens, UniProt Q14145+Q16236); test: Binding affinity to FLAG/His-tagged Keap1 (unknown origin)/biotinylated full-length FLAG/His/Tev/Avi-tagged NRF2 (unknown origin) expressed in baculovirus infected Sf9 insect cells measured after 1 hr by TR-FRET assay
Homo sapiens = organism: Homo sapiens; test: Activation of Keap1/Cul3/Nrf2 in NHBE cells assessed as induction of HO-1 gene expression at 10 uM after 24 hrs by RT-PCR analysis relative to SFN; format: cell-based
[3] = Kinetic solubility of the compound at pH 7.4 by CLND method; format: physicochemical; details: buffer, read-out: Kinetic_solubility
[4] = Lipophilicity, log D of the compound at pH 7.4 by chromatographic method; format: physicochemical; details: buffer

Sequence of Keap1/Nrf2 (Q16236 whole entry): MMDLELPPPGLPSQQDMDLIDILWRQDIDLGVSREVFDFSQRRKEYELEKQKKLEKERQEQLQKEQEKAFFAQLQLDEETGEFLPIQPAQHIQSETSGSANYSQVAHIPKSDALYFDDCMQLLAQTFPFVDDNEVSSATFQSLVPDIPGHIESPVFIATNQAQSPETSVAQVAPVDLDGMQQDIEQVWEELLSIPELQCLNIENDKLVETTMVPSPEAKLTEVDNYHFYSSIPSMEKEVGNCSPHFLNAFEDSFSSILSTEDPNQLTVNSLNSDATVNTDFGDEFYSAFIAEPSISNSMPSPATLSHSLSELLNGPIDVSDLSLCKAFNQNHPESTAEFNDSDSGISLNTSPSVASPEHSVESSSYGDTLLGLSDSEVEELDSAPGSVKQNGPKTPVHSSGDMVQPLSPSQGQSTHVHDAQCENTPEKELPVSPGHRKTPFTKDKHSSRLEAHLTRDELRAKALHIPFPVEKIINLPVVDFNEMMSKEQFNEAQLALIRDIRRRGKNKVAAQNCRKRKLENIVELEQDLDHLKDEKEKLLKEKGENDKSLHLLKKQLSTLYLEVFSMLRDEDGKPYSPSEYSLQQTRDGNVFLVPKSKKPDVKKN
Sequence of Keap1/Nrf2 (Q14145 whole entry): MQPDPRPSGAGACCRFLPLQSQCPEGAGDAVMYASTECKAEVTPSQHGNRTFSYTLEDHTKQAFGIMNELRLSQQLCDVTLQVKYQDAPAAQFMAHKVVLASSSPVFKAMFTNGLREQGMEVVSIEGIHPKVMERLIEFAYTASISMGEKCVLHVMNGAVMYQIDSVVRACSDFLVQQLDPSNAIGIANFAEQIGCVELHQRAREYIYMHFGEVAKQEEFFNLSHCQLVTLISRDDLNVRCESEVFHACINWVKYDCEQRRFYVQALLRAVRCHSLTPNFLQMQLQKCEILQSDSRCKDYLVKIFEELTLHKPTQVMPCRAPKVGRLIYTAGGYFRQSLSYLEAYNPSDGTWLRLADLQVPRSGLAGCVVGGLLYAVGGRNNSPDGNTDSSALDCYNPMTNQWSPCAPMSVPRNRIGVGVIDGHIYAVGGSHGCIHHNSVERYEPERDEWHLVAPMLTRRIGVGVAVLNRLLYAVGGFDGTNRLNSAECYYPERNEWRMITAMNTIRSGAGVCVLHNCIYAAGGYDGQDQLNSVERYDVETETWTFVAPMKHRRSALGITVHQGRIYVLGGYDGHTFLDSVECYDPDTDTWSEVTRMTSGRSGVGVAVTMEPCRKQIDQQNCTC

Structure (SMILES)	EC50 [1] [µM]	IC50 (Keap1/Nrf2) [µM]	solubility kinetic [3] [µM]	chromatographic logD [4]	pIC50 [2]	fold change (FC) (Homo sapiens)
CN1CCC(SC(=S)NCCCCS(=O)(=O)c2ccncc2)CC1		100	≥ 419	1.56	4.5	2
O=C(NCCCCN=C=S)Nc1cccnc1		39.8	≥ 428	2.79	4.5	13.6
CC(=O)CCCCN=C=S		> 100	206 (≈ 32.4 µg/mL)	4.21	4.1	0.9
O=C(O)C(F)(F)F.[O-][S+](CCCCN=C=S)CCN1CCOCC1 (stereo unspecified)		> 100	81	1.91	< 4	0.16
CN1CCC(SC(=S)NCCCCNC(=O)Oc2ccccc2)CC1		25.1	≥ 410	0.9	4.8	5.52
O=S(=O)(/C=C(\CO)CN1CCC(CN=C=S)CC1)c1ccccc1		25.1	187 (≈ 68.5 µg/mL)	7.09	5.6	25.3
Cc1ccccc1S(=O)(=O)CCCCN=C=S		31.6	261 (≈ 70.3 µg/mL)	5.52	5	0.67
CN1CCC(SC(=S)NCCCCNC(=O)NCc2ccccc2)CC1		20	≥ 451	2.4	4.9	14.5
CN1CCC(SC(=S)NCCCCNC(=O)Nc2ccncc2)CC1		20	≥ 350	1.02	4.9	29.8
O=C(NCCCCN=C=S)Nc1ccc2c(c1)OCO2		6.31	42 (≈ 12.3 µg/mL)	4.25	5	10.5
CC(C)(C)OC(=O)N1CCC(SC(=S)NCCCCNC(=O)NC2CCCC2)CC1		> 100	53 (≈ 24.3 µg/mL)	6.1	4.4	27.3
CC(C)(C)OC(=O)N1CCC(SC(=S)NCCCCNC(=O)OCc2ccccc2Cl)CC1		2.51	2 (≈ 1.03 µg/mL)	7.72	4.8	40.3
CCCCNCCSC(=S)NCCCC[S+](C)[O-] (stereo unspecified)		> 100	≥ 420	4.34	< 4	0.08
O=C(NCCCCN=C=S)Nc1ccncc1		31.6	400 (≈ 100 µg/mL)	2.6	4.7	15.3
CC(C)(C)OC(=O)N1CCC(SC(=O)NCCCCNC(=S)SC2CCN(C(=O)OC(C)(C)C)CC2)CC1		> 100	9 (≈ 5.32 µg/mL)	7.89	< 4	4.08
O=S(=O)(CC1(N2CCC(CN=C=S)C2)COC1)c1ccccc1 (stereo unspecified)		50.1	242 (≈ 85.3 µg/mL)	5.02	4.7	8.15

Structure (SMILES)	EC50 [1] [µM]	IC50 (Keap1/Nrf2) [µM]	solubility kinetic [3] [µM]	chromatographic logD [4]	pIC50 [2]	fold change (FC) (Homo sapiens)
O=C(NCCCCN=C=S)OCc1ccccc1Cl		5.01	73 (≈ 21.8 µg/mL)	6.35	5.2	3.21
CC(=O)N(C)CCS(=O)(=O)CCCCN=C=S		> 100	≥ 340	2.4	< 4	0.29
O=C(NCCCCN=C=S)OCc1ccncc1		39.8	354 (≈ 93.9 µg/mL)	3.5	4.6	13.3
O=S1(=O)CCC(CN=C=S)C1 (stereo unspecified)		> 100	≥ 639	1.82	4.4	0.37
O=C(CCCCN=C=S)NCc1ccccc1		20	≥ 418	4.59	4.7	28
CC(C)(C)OC(=O)N1CCC(SC(=S)NCCCCNC(=O)Nc2ccc3nccnc3c2)CC1		15.8	42 (≈ 21.8 µg/mL)	5.02	4.8	100
CN1CCC(SC(=S)NCCCCNC(=O)OCc2ccccn2)CC1		39.8	≥ 385	1.83	4.6	11.4
CC(=O)NCC[S+]([O-])CCCCN=C=S (stereo unspecified)		> 100	≥ 180	1.09	< 4	0.15
COC(=O)[C@H](CSC(=S)NCCCC[S+](C)[O-])NC(C)=O (stereo partly specified)		> 100	≥ 510	1.04	< 4	0.85
O=S1(=O)CCN(CCN=C=S)CC1		> 100	≥ 274	2.33	< 4	0.19
CN(C)CCCS(=O)(=O)CCCCN=C=S		> 100	210 (≈ 55.5 µg/mL)	1.55	< 4	0.34
CN1CCC(SC(=S)NCCCCNC(=O)Nc2ccc3nccnc3c2)CC1		10	≥ 400	1.52	5.1	102
[O-][S+](CCCCN=C=S)c1ccccn1 (stereo unspecified)		31.6	≥ 372	3.16	4.2	1.17
O=C(NCCCCN=C=S)NC1CCCC1		50.1	419 (≈ 101 µg/mL)	4.1	4.4	2.66
CN(C)CCC[S+]([O-])CCCCN=C=S (stereo unspecified)		> 100	≥ 250	0.81	< 4	0.27
CCNC(=O)N1CCC(SC(=S)NCCCCNC(=O)NCc2ccccc2)CC1		63.1	255 (≈ 115 µg/mL)	3.43	4.4	81.8

The next lines start with results.

EC50 [1] [µM]	IC50 (Keap1/Nrf2) [µM]	solubility kinetic [3] [µM]	chromatographic logD [4]	Structure (SMILES)	pIC50 [2]	fold change (FC) (Homo sapiens)
0.00871				COC(=O)[C@]12CCC(C)(C)C[C@H]1[C@H]1C(=O)C=C3[C@@]4(C)C=C(C#N)C(=O)C(C)(C)[C@@H]4CC[C@@]3(C)[C@]1(C)CC2 [BARDOXOLONE METHYL]		
	63.1	≥ 473	3.27	O=C(NCCCCN=C=S)c1ccno1	4.2	2.65
	25.1	≥ 467	0.68	C[S+]([O-])CCCCNC(=S)SCCCO (stereo unspecified)	< 4	0.24
	> 100	≥ 444	2.44	COC(=O)C(CS(=O)(=O)CCCCN=C=S)NC(C)=O (stereo unspecified)	4.3	0.16
	10	355 (≈ 140 µg/mL)	3.49	CN1CCC(SC(=S)NCCCCNC(=O)OCc2ccccc2)CC1	5.2	4.67
	> 100	279 (≈ 85.5 µg/mL)	1.61	COC(=O)C(C[S+]([O-])CCCCN=C=S)NC(C)=O (stereo unspecified)	< 4	0.11
	50.1	≥ 289	2.63	O=C(NCCCCN=C=S)c1cccnc1	4.1	1.78
	> 100	≥ 422	1.8	CC(=O)NCCS(=O)(=O)CCCCN=C=S	4.2	0.37
	39.8	≥ 245	2.33	CN1CCC(SC(=S)NCCCCNC(=O)NC2CCCC2)CC1	4.5	19.3
	> 100	273 (≈ 79.8 µg/mL)	2.93	O=S(=O)(CCCCN=C=S)CCN1CCOCC1	< 4	0.22
	> 100	382 (≈ 151 µg/mL)	4.23	C[S+]([O-])CCCCNC(=S)SC1CCN(C(=O)OC(C)(C)C)CC1 (stereo unspecified)	4.3	0.48
	> 100	≥ 367	4.93	S=C=NCCN1CCSCC1	< 4	0.21
	> 100	376 (≈ 94.1 µg/mL)	2.84	CN(C)CCS(=O)(=O)CCCCN=C=S	4.4	3.25
	> 100	≥ 425	1.9	C[S+]([O-])CCCCNC(=S)SCCSC(=S)NCCCC[S+](C)[O-] (stereo unspecified)	4.3	0.74
	12.6	77 (≈ 28.8 µg/mL)	6.72	CC(C)(C)OC(=O)N1CCC(SC(=O)NCCCCN=C=S)CC1	5.1	4.01
	50.1	≥ 256	3	CN1CCC(SC(=S)NCCCCNC(=O)CC2CCCC2)CC1	4.5	31.3
	20	≥ 358	2.46	CN1CCC(SC(=S)NCCCCNC(=O)Nc2ccc3c(c2)OCO3)CC1	5.1	25.1
